According to publication PMC5435703 (Scientific Reports, 2017):
In brackets after ≈: the same amount, converted by molar mass. Like-named read-outs stand apart in the source and are kept apart here.

Experiments:
S. aureus = system: S. aureus; parameters: method as in PMID 24389824; conditions: initial studies; cited from earlier work
MRSE 35984 [1] = assay: MIC broth microdilution assay; format: cell-based, Staphylococcus epidermidis
MRSA-1707 biofilms = assay: CBD pulse biofilm eradication experiment; format: cell-based, Staphylococcus aureus; conditions: two subsequent 24 hour compound treatment phases
MRSA BAA-1707 [2] = assay: MIC broth microdilution assay; format: cell-based, Staphylococcus aureus
VRE 700221 [3] = assay: MIC broth microdilution assay; format: cell-based, Enterococcus faecium
VRE 700221 [4] = assay: Calgary Biofilm Device (CBD) MBC/MBEC assay; format: cell-based, Enterococcus faecium; conditions: for MBC: read-out: VRE 700221 MBC
MRSA BAA-1707 [5] = assay: Calgary Biofilm Device (CBD) MBC/MBEC assay; format: cell-based, Staphylococcus aureus; conditions: for MBC: read-out: MRSA BAA-1707 MBC
MRSA BAA-1707 [6] = assay: MIC assay with metal(II) cation co-treatment; format: cell-based, Staphylococcus aureus; conditions: Staphylococcus aureus
human red blood cells = conditions: human, 1 h, pH 7.2
MRSA-1 = assay: MIC broth microdilution assay; format: cell-based, Staphylococcus aureus; conditions: Staphylococcus aureus, MRSA; Table 1; read-out: MIC MRSA-1
MRSE 35984 [7] = assay: Calgary Biofilm Device (CBD) MBC/MBEC assay; format: cell-based, Staphylococcus epidermidis; conditions: Staphylococcus epidermidis, MRSE

## Oc1c(Br)ccc2nc3ccccc3nc12 [2-bromo-1-hydroxyphenazine, reference compound]
S. aureus
  MIC S. aureus: 6.25 µM (≈ 1.72 µg/mL)

## CCCCCCCCCCCCCCCC[N+](C)(C)Cc1ccccc1.[Cl-] [BAC-16, reference compound]
MRSE 35984 [1]; Table 1, read-out: MIC MRSE 35984
  MIC: 1.56 µM
MRSE 35984 [1]; Table 3, read-out: MRSE 35984 MIC
  MIC: 1.56 µM
MRSA-1707 biofilms
  MBEC, pulse treatment: 25 µM
MRSA BAA-1707 [2]; Table 1, three independent experiments, read-out: MIC MRSA BAA-1707
  MIC: 1.56 µM
MRSA BAA-1707 [2]; Table 3, read-out: MRSA BAA-1707 MIC
  MIC: 1.56 µM
VRE 700221 [3]; Table 1, read-out: MIC VRE 700221
  MIC: 3.13 µM
VRE 700221 [3]; Table 3, read-out: VRE 700221 MIC
  MIC: 3.13 µM
VRE 700221 [4]; CBD, biofilm eradication
  VRE 700221 MBEC: 3.0 µM
VRE 700221 [4]; CBD, planktonic killing
  MBC: 5.9 µM
MRSA BAA-1707 [5]; CBD, biofilm eradication, 24 hours treatment
  MRSA BAA-1707 MBEC: 15.6 µM
MRSA BAA-1707 [5]; CBD, planktonic killing, 24 hours treatment
  MBC: 31.3 µM

## O=C(O)CN(CCN(CC(=O)O)CC(=O)O)CC(=O)O [EDTA, ethylenediaminetetraacetic acid, reference compound]
MRSA BAA-1707 [6]; Table 2, MRSA BAA-1707, no metal(II) cation added, read-out: MIC
  MIC: 25 µM
MRSA BAA-1707 [6]; copper(II) at 200 µM co-treatment, read-out: MIC w/Cu2+
  MIC: 50 µM
MRSA BAA-1707 [6]; iron(II) at 200 µM co-treatment, read-out: MIC w/Fe2+
  MIC: 50 µM
MRSA BAA-1707 [6]; magnesium(II) at 200 µM co-treatment, read-out: MIC w/Mg2+
  MIC: 50 µM
MRSA BAA-1707 [6]; zinc(II) at 200 µM co-treatment, read-out: MIC w/Zn2+
  MIC: 50 µM
MRSA BAA-1707 [2]; Staphylococcus aureus, Table 1, three independent experiments, read-out: MIC MRSA BAA-1707
  MIC: 25 µM (≈ 7.31 µg/mL)
MRSA BAA-1707 [2]; Staphylococcus aureus, Table 3, read-out: MRSA BAA-1707 MIC
  MIC: 25 µM (≈ 7.31 µg/mL)
VRE 700221 [4]; Enterococcus, VRE, 24 h, read-out: VRE 700221 MBEC
  minimal effective concentration: 93.8 µM
VRE 700221 [4]; Enterococcus, VRE
  MBC: > 2000 µM
MRSA BAA-1707 [5]; Staphylococcus aureus, 24 h
  MBC: > 2000 µM
MRSA BAA-1707 [5]; Staphylococcus aureus, 24 h, read-out: MRSA BAA-1707 MBEC
  minimal effective concentration: > 2000 µM
Human red blood cells
  Hemolysis at 200 µM (%): ≤1%
MRSA-1
  MIC: 12.5 µM (≈ 3.65 µg/mL)
MRSE 35984 [7]; 24 h, read-out: MRSE 35984 MBEC
  minimal effective concentration: > 2000 µM
MRSE 35984 [7]; read-out: MRSE 35984 MBC
  MBC: 1000 µM (≈ 292 µg/mL)
